Test results as given in US20220411471A1, “CELL-PERMEABLE CYCLIC PEPTIDES AND USES THEREOF” (Unnatural Products Inc., priority 2019, published 2022).
pIC50: −log10 of the molar value. Non-standard residues stand in square brackets, D forms with d. Residues, ends and D or L forms follow the SMILES beside them. Trp(6-Cl) = N[C@@H](Cc1c[nH]c2cc(Cl)ccc12)C(=O)O; Phe(4-Cl) = N[C@@H](Cc1ccc(Cl)cc1)C(=O)O; Phe(4-F) = N[C@@H](Cc1ccc(F)cc1)C(=O)O; 2Thi = N[C@@H](Cc1cccs1)C(=O)O; NMeL = CN[C@@H](CC(C)C)C(=O)O; NMeNle = CCCC[C@H](NC)C(=O)O; Tle = CC(C)(C)[C@H](N)C(=O)O; dPip = O=C(O)[C@H]1CCCCN1; NMeA = CN[C@@H](C)C(=O)O

Molecular target: T1, Human MDM2 (HDM2) 1-116 (Homo sapiens, UniProt Q00987)
T1 construct: Human MDM2 (HDM2) 1-116
Experiment: Fluorescence polarization assay, MDM2/p53 (Table 3)
Assay type: binding
Method: (§1) Human MDM2 (HDM2) 1-116 (20 μL) and FITC-labeled p53 (18-26), 50 nM and 10 nM respectively in 10 mM Tris, 50 mM NaCl, 0.01% Tween20, and 1 mM DTT at pH 7.4 were dispensed into an opaque, black, 384 well plate. Compounds dissolved in DMSO were pin transferred (˜200 nL) to the 384 well plate containing the MDM2/p53 solution. After incubation for 10 minutes, the fluorescence polarization was read on a Molecular Devices SpectraMax plate reader equipped with a Fluorescein FP cartridge. In addition to probe alone (positive control) and probe/MDM2 (negative control), a titration of linear p53(18-26) was included on every plate as an additional control. IC50 values were fit using either Prism or Collaborative Drug Discovery.
as §1, with “and FAM-labeled RFMDYWEGL-NH2,” for “and FITC-labeled p53 (18-26),”, “NaCl, 0.010%” for “NaCl, 0.01%”, “transferred (˜100-200” for “transferred (˜200”, “for 60” for “for 10”

T1 sequence (Q00987 1-116): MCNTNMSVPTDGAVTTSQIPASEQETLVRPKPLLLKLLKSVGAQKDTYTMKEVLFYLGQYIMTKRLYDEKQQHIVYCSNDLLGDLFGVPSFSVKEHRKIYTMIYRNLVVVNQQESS

pIC50	SMILES
> 6.00	CC(C)C[C@@H]1NC(=O)[C@H](Cc2c[nH]c3cc(Cl)ccc23)NC(=O)[C@H](CCC(=O)O)NC(=O)[C@H](Cc2ccccc2)NC(=O)[C@@H]2CCCN2C(=O)[C@H]2CCCN2C(=O)[C@H](Cc2ccccc2)NC(=O)[C@H](CCC(=O)O)NC(=O)[C@H](Cc2c[nH]c3ccccc23)NC(=O)[C@H](CC(=O)O)NC1=O [Compound 1, [H]OC(=O)CC[C@@H]1NC(=O)[C@H](Cc2cn([H])c3ccccc23)NC(=O)[C@H](CC(=O)O[H])NC(=O)[C@H](CC(C)C)NC(=O)[C@H](Cc2c[nH]c3cc(Cl)ccc23)NC(=O)[C@H](CCC(=O)O[H])NC(=O)[C@H](Cc2ccccc2)NC(=O)[C@@H]2CCCN2C(=O)[C@H]2CCCN2C(=O)[C@H](Cc2ccccc2)NC1=O] (cyclo(FE[Trp(6-Cl)]LDWEF[dP]P))
5.60 to 6.00	CC(C)C[C@@H]1NC(=O)[C@H](Cc2c[nH]c3ccccc23)NC(=O)[C@H](CCC(=O)O)NC(=O)[C@H](Cc2ccccc2)NC(=O)[C@@H]2CCCN2C(=O)[C@H]2CCCN2C(=O)[C@H](Cc2ccccc2)NC(=O)[C@H](CCC(=O)O)NC(=O)[C@H](Cc2c[nH]c3ccccc23)NC(=O)[C@H](CC(=O)O)NC1=O [Compound 2, [H]OC(=O)CC[C@@H]1NC(=O)[C@H](Cc2cn([H])c3ccccc23)NC(=O)[C@H](CC(=O)O[H])NC(=O)[C@H](CC(C)C)NC(=O)[C@H](Cc2cn([H])c3ccccc23)NC(=O)[C@H](CCC(=O)O[H])NC(=O)[C@H](Cc2ccccc2)NC(=O)[C@@H]2CCCN2C(=O)[C@H]2CCCN2C(=O)[C@H](Cc2ccccc2)NC1=O] (cyclo(FEWLDWEF[dP]P))
> 6.00	CC(C)C[C@H]1C(=O)N[C@@H](CC(=O)O)C(=O)N[C@@H](Cc2c[nH]c3ccccc23)C(=O)N[C@@H](CCC(=O)O)C(=O)N[C@@H](Cc2ccccc2)C(=O)N2CCC[C@@H]2C(=O)N2CCC[C@H]2C(=O)N[C@@H](Cc2ccccc2)C(=O)N[C@@H](CCC(=O)O)C(=O)N[C@@H](Cc2c[nH]c3ccccc23)C(=O)N1C [Compound 3, [H]OC(=O)CC[C@@H]1NC(=O)[C@H](Cc2ccccc2)NC(=O)[C@@H]2CCCN2C(=O)[C@H]2CCCN2C(=O)[C@H](Cc2ccccc2)NC(=O)[C@H](CCC(=O)O[H])NC(=O)[C@H](Cc2cn([H])c3ccccc23)NC(=O)[C@H](CC(=O)O[H])NC(=O)[C@H](CC(C)C)N(C)C(=O)[C@H](Cc2cn([H])c3ccccc23)NC1=O] (cyclo(FEW[NMeL]DWEF[dP]P))
> 6.00	CC(C)C[C@H]1C(=O)N[C@@H](CC(=O)O)C(=O)N[C@@H](Cc2ccc(F)cc2)C(=O)N[C@@H](CCC(=O)O)C(=O)N[C@@H](Cc2ccc(Cl)cc2)C(=O)N2CCC[C@@H]2C(=O)N2CCC[C@H]2C(=O)N[C@@H](Cc2ccccc2)C(=O)N[C@@H](CCC(=O)O)C(=O)N[C@@H](Cc2c[nH]c3ccccc23)C(=O)N1C [Compound 4, [H]OC(=O)CC[C@@H]1NC(=O)[C@H](Cc2ccccc2)NC(=O)[C@@H]2CCCN2C(=O)[C@H]2CCCN2C(=O)[C@H](Cc2ccc(Cl)cc2)NC(=O)[C@H](CCC(=O)O[H])NC(=O)[C@H](Cc2ccc(F)cc2)NC(=O)[C@H](CC(=O)O[H])NC(=O)[C@H](CC(C)C)N(C)C(=O)[C@H](Cc2cn([H])c3ccccc23)NC1=O] (cyclo(FEW[NMeL]D[Phe(4-F)]E[Phe(4-Cl)][dP]P))
> 6.00	CC(C)C[C@H]1C(=O)N[C@@H](CC(=O)O)C(=O)N[C@@H](Cc2ccc(F)cc2)C(=O)N[C@@H](CCC(=O)O)C(=O)N[C@@H](Cc2ccccc2)C(=O)N2CCC[C@@H]2C(=O)N2CCC[C@H]2C(=O)N[C@@H](Cc2cccs2)C(=O)N[C@@H](CCC(=O)O)C(=O)N[C@@H](Cc2c[nH]c3ccccc23)C(=O)N1C [Compound 5, [H]OC(=O)CC[C@@H]1NC(=O)[C@H](Cc2cccs2)NC(=O)[C@@H]2CCCN2C(=O)[C@H]2CCCN2C(=O)[C@H](Cc2ccccc2)NC(=O)[C@H](CCC(=O)O[H])NC(=O)[C@H](Cc2ccc(F)cc2)NC(=O)[C@H](CC(=O)O[H])NC(=O)[C@H](CC(C)C)N(C)C(=O)[C@H](Cc2cn([H])c3ccccc23)NC1=O] (cyclo([2Thi]EW[NMeL]D[Phe(4-F)]EF[dP]P))
> 6.00	CC(C)C[C@H]1C(=O)N[C@@H](CC(=O)O)C(=O)N[C@@H](Cc2c[nH]c3ccccc23)C(=O)N[C@@H](CCC(=O)O)C(=O)N[C@@H](Cc2ccccc2)C(=O)N2CCC[C@@H]2C(=O)N2CCC[C@H]2C(=O)N[C@@H](Cc2ccc(F)cc2)C(=O)N[C@@H](CCC(=O)O)C(=O)N[C@@H](Cc2ccc(Cl)cc2)C(=O)N1C [Compound 6, [H]OC(=O)CC[C@@H]1NC(=O)[C@H](Cc2cn([H])c3ccccc23)NC(=O)[C@H](CC(=O)O[H])NC(=O)[C@H](CC(C)C)N(C)C(=O)[C@H](Cc2ccc(Cl)cc2)NC(=O)[C@H](CCC(=O)O[H])NC(=O)[C@H](Cc2ccc(F)cc2)NC(=O)[C@@H]2CCCN2C(=O)[C@H]2CCCN2C(=O)[C@H](Cc2ccccc2)NC1=O] (cyclo([Phe(4-F)]E[Phe(4-Cl)][NMeL]DWEF[dP]P))
≤ 5.30	CCCC[C@H]1C(=O)N[C@@H](Cc2ccccc2)C(=O)N2CCC[C@@H]2C(=O)N2CCC[C@H]2C(=O)N[C@@H](Cc2ccccc2)C(=O)N(C)[C@@H](CCCC)C(=O)N[C@@H](Cc2c[nH]c3ccccc23)C(=O)N(C)[C@@H](CC(C)C)C(=O)N[C@@H](CC(=O)O)C(=O)N[C@@H](Cc2c[nH]c3ccccc23)C(=O)N1C [Compound 7, [H]OC(=O)C[C@@H]1NC(=O)[C@H](CC(C)C)N(C)C(=O)[C@H](Cc2cn([H])c3ccccc23)NC(=O)[C@H](CCCC)N(C)C(=O)[C@H](Cc2ccccc2)NC(=O)[C@@H]2CCCN2C(=O)[C@H]2CCCN2C(=O)[C@H](Cc2ccccc2)NC(=O)[C@H](CCCC)N(C)C(=O)[C@H](Cc2cn([H])c3ccccc23)NC1=O] (cyclo(F[NMeNle]W[NMeL]DW[NMeNle]F[dP]P))
5.30 to 5.60	C[C@H]1C(=O)N[C@@H](Cc2ccc(Cl)cc2)C(=O)N2CCCC[C@@H]2C(=O)N2CCC[C@H]2C(=O)N[C@@H](Cc2ccccc2)C(=O)N[C@@H](CCC(=O)O)C(=O)N[C@@H](Cc2ccc(O)cc2)C(=O)N2CCC[C@@H]2C(=O)N(C)[C@@H](C)C(=O)N[C@@H](Cc2ccc(F)cc2)C(=O)N1C [Compound 8, [H]OC(=O)CC[C@@H]1NC(=O)[C@H](Cc2ccccc2)NC(=O)[C@@H]2CCCN2C(=O)[C@H]2CCCCN2C(=O)[C@H](Cc2ccc(Cl)cc2)NC(=O)[C@H](C)N(C)C(=O)[C@H](Cc2ccc(F)cc2)NC(=O)[C@H](C)N(C)C(=O)[C@H]2CCCN2C(=O)[C@H](Cc2ccc(O[H])cc2)NC1=O] (cyclo(EY[dP][NMeA][Phe(4-F)][NMeA][Phe(4-Cl)][dPip]PF))
> 6.00	C[C@H]1C(=O)N[C@@H](Cc2ccc(F)cc2)C(=O)N[C@@H](CCC(=O)O)C(=O)N[C@@H](Cc2ccccc2)C(=O)N2CCCC[C@@H]2C(=O)N2CCC[C@H]2C(=O)N[C@@H](Cc2ccccc2)C(=O)N[C@@H](CCC(=O)O)C(=O)N[C@@H](Cc2c[nH]c3ccccc23)C(=O)N2CCC[C@@H]2C(=O)N1C [Compound 9, [H]OC(=O)CC[C@@H]1NC(=O)[C@H](Cc2ccccc2)NC(=O)[C@@H]2CCCN2C(=O)[C@H]2CCCCN2C(=O)[C@H](Cc2ccccc2)NC(=O)[C@H](CCC(=O)O[H])NC(=O)[C@H](Cc2ccc(F)cc2)NC(=O)[C@H](C)N(C)C(=O)[C@H]2CCCN2C(=O)[C@H](Cc2cn([H])c3ccccc23)NC1=O] (cyclo(EF[dPip]PFEW[dP][NMeA][Phe(4-F)]))

SMILES	pIC50
C[C@H]1C(=O)N[C@@H](Cc2ccc(Cl)cc2)C(=O)N2CCCC[C@@H]2C(=O)N2CCC[C@H]2C(=O)N[C@@H](Cc2ccccc2)C(=O)N[C@@H](C(C)(C)C)C(=O)N[C@@H](Cc2ccc(O)cc2)C(=O)N2CCC[C@@H]2C(=O)N(C)[C@@H](C)C(=O)N[C@@H](Cc2ccc(F)cc2)C(=O)N1C [Compound 10, [H]Oc1ccc(C[C@@H]2NC(=O)[C@@H](NC(=O)[C@H](Cc3ccccc3)NC(=O)[C@@H]3CCCN3C(=O)[C@H]3CCCCN3C(=O)[C@H](Cc3ccc(Cl)cc3)NC(=O)[C@H](C)N(C)C(=O)[C@H](Cc3ccc(F)cc3)NC(=O)[C@H](C)N(C)C(=O)[C@H]3CCCN3C2=O)C(C)(C)C)cc1] (cyclo(F[Tle]Y[dP][NMeA][Phe(4-F)][NMeA][Phe(4-Cl)][dPip]P))	5.60 to 6.00
C[C@H]1C(=O)N[C@@H](Cc2ccc(Cl)cc2)C(=O)N2CCCC[C@@H]2C(=O)N2CCC[C@H]2C(=O)N[C@@H](Cc2ccccc2)C(=O)N[C@@H](C(C)(C)C)C(=O)N[C@@H](Cc2ccc(O)cc2)C(=O)N2CCC[C@@H]2C(=O)N(C)[C@@H](C)C(=O)N[C@@H](Cc2ccc(F)cc2)C(=O)N1C [Compound 11, [H]Oc1ccc(C[C@@H]2NC(=O)[C@@H](NC(=O)[C@H](Cc3ccccc3)NC(=O)[C@@H]3CCCN3C(=O)[C@H]3CCCCN3C(=O)[C@H](Cc3ccc(Cl)cc3)NC(=O)[C@H](C)N(C)C(=O)[C@H](Cc3ccc(F)cc3)NC(=O)[C@H](C)N(C)C(=O)[C@H]3CCCN3C2=O)C(C)(C)C)cc1] (cyclo(F[Tle]Y[dP][NMeA][Phe(4-F)][NMeA][Phe(4-Cl)][dPip]P))	≤ 5.30
